Source: patent publication US6251898A, “Medical use of fluorenone derivatives for treating and preventing brain and spinal injury” (Questcor Pharmaceuticals, Inc., priority 1999, dated 2001)

Assays:
[1] = system: UC11-MG human astrocytoma cells; experiment: D-aspartate (excitotoxin) release by hypo-osmotically stressed astrocytoma cells; type: cell-based
Source text: The in vitro tests described in this example used UC11-MG human astrocytoma cells, obtained from the University of Cincinnati, and described in Liwnicz et al 1986 and Lomneth et al 1989. Cell culture reagents (including RPMI 1640, fetal bovine serum, trypsin, and gentamicin) were obtained from Gibco (Gaithersburg, Md.). Radiolabelled D-[2,3-^3 H]aspartate was obtained from Amersham Life Sciences (Buckinghamshire, England). ScintiVerse II scintillation fluid was obtained from Fisher Scientific (Pittsburgh, Pa.). All other chemicals were obtained from Sigma Chemical Co. (St. Louis, Mo.). Osmolarities of solutions were measured using the Advance DigiMatic Osmometer Model 3D II (Advanced Instruments Inc., Mass.).
The UC11-MG astrocytoma cells were cultured in 75 ml vented flasks at 37° C. inside a humidified incubator in 5% CO2 /95% air. The cells were grown in RPMI Medium 1640 supplemented with 10% fetal bovine serum and […] gentamicin. At approximately 90% confluence, the cells were detached and suspended using a 0.0625% trypsin solution in Buffer A (137 mM NaCl, 5.37 mM KCl, 5.55 mM glucose, 4.17 mM NaHCO3, and 0.54 mM EDTA disodium salt, pH 7.4). The cells were then plated onto 6-well tissue culture plates at a seeding ratio of 4 plates per flask and 4 ml of cell-media suspension per well. The plated cells were used in experiments the next day at approximately 90% confluence. Plates that appeared to be more than 95% confluent were not used, because higher levels of confluence led to uncontrollable differentials in exposure of the cells to culture media and labelled aspartate. All tests were performed in triplicate. All media collections were done at 5 minute intervals, using pipettes, and were followed by promptly loading fresh buffer into each well before any drying occurred. All buffer samples collected in this manner were loaded into scintillation vials, mixed with 5 ml scintillation fluid, and counted for 1 minute in a scintillation counter (Beckman LS8000, Fullerton, Calif.).
Prior to D-aspartate exposure, the wells were washed three times under sterile conditions with 3 ml of 37° C. Buffer B (122 mM NaCl, 3.3 mM KCl, 1.2 mM CaCl2, 0.4 mM MgSO4, 1.2 mM KH2 PO4, 25 mM Hepes, 10 mM glucose, pH 7.4).
The cells were then loaded with 0.5 μCi/ml of D-aspartate, and incubated at 37° C. for 30 min. Cells were then washed four times with Buffer B, and the last washing fluid was left on the cells. The plates were then placed on an orbital shaker and maintained at 37° C.
Baseline aspartate release levels (prior to drug treatment) were determined by incubating the cells with normal Buffer B (285 mOsm) for 15 minutes, while buffer was collected every 5 minutes.
After the buffer was collected from a well at the 15 minute mark, the next set of normal Buffer B added to that well contained a test compound at a known concentration; each compound was tested over a range of concentrations. Cells were then incubated for two 5 minute intervals with solutions of test compounds in normal Buffer B. In some tests which used buffers containing relatively high concentrations of a test drug with limited solubility in water, DMSO was added to the mixture to increase the solubility of the compound in water.
Beginning at the 25-minute mark, the cells were stimulated to begin releasing aspartate by loading a well with hypo-osmotic buffer, prepared by diluting Buffer B with an equal volume of distilled and deionized H2 O, resulting in an osmolarity of about 145 mOsm. This hypo-osmoticsolution caused the cells to begin taking in excess water, to try to reestablish the normal osmotic gradients that exist across the cell membranes. The water-induced swelling and stress then began to induce release of aspartate by the cells, and the amount of aspartate released by the swollen astrocyte cells was measured by removing the buffer every 5 minutes and testing it in a scintillation counter.

[2] = system: neuronal damage caused by global brain ischemia; experiment: Global cerebral ischemia, bilateral carotid occlusion model in gerbils; type: in vivo, Mongolian gerbils
Source text: The surgical and drug treatment procedures used in the animal model of global brain ischemia are described in Example 24. "Global" ischemia occurs when the entire brain is deprived of oxygenated blood, as occurs during crises such as cardiac arrest, suffocation, or carbon monoxide poisoning. It should be noted that the drug treatment was provided only after the ischemic insult had been fully completed (i.e., after the clamps which were used to temporarily close the carotid arteries had been released again). "Post-trauma" treatment offers a much more realistic, and much more difficult and stringent, challenge than other assays in which test animals are pre-treated with a test drug before an ischemic insult begins.
In one set of in vivo tests, the bilateral carotid occlusion model in gerbils was used to evaluate the abilities of a selected compound, GERI-E7, to protect against neuronal damage caused by global brain ischemia. These tests were performed in the laboratory of Dr. Claude Wasterlain, at the Sepulveda Veterans Administration Medical Center, in Los Angeles, Calif.
Adult male Mongolian gerbils were subjected to reversible bilateral carotid occlusion for 5 minutes, according to standard methods (e.g., Wasterlain et al 1992 and 1996). Each gerbil in a test group was then treated with a test compound at either 2 or 20 mg/kg, dissolved in injectable saline and administered intravenously (IV). Control animals were treated with saline. All treatment and control groups had 10 animals per group. Body temperature was maintained throughout the procedure by a heat lamp and rectal probe.
The gerbils were sacrificed 72 hours after surgery, and their brains were perfusion-fixed with paraformaldehyde. Serial sections of the brain were cut and stained with hematoxylin and eosin, and quantitative cell counts of live and dead neurons were made, using light and fluorescence microscopy, in two different parts of the brain that are highly sensitive to ischemic damage: (i) the subiculum, a zone of transition between the parahippocampus and the hippocampus; and (ii) the CA1 portion of the hippocampus. Statistical analysis was performed on all damage scores (non-paired student t test). All evaluations were made using double-blinded methods.

CCC[C@]12CCC(=O)C=C1c1c(cc(OCC3=NCCO3)c(Cl)c1Cl)C2 [GERI-E7, R(+)-2-[[(5,6-dichloro-2,3,9,9a-tetrahydro-3-oxo-9a-propyl-1H-fluoren-7-yl)-oxy]methyl]oxazoline]
IC50 ([1]; Homo sapiens, UC11MG, hypo-osmotic stress, about 145 mOsm, AUC-based, read-out: IC50 value (suppression of excitotoxin / D-aspartate release by stressed astrocyte cells)): 8.5 µM
Comparative potency ([1]; relative to L-644,711 (100% = benchmark)): 3,100%
Reduction of dead or dying neurons in the hippocampus ([2]; CA1 region of hippocampus, IV after 5 min occlusion, 72 h, 2 or 20 mg/kg, on average): about 40%
Reduction of brain damage caused by global brain ischemia ([2]; animal model used): very effective in reducing brain damage
Reduction in neuronal damage levels in other brain regions ([2]; mainly visual semi-quantitative methods): significant reduction in neuronal damage levels in most of the other areas
Reduction in neuronal damage in both brain regions evaluated ([2]; subiculum and CA1, versus saline control, student t test): substantial and statistically significant reduction in neuronal damage
Reduction of dead or dying neurons in the subiculum ([2]; subiculum, IV after 5 min occlusion, 72 h, 2 or 20 mg/kg, on average): about 30%
